Tests used:
[1] = tested on: human peripheral blood monocyte cells, first type (HLA-DRB1*07:01, 15:02); experiment: ELISPOT assay for interleukin-4, cell 1; assay type: cell-based; details: 4×10^5 cells per well, peptide 10 μg/ml, 48 hours, after 13 days culture with peptide 1 μg/ml and IL-2
Experimental: (§1) There was performed an assay for specifying a peptide that could actually be an antigen from the peptide candidate list obtained up to Example 8. In this example, it was confirmed whether the sequence of the peptide obtained as described above could function as a T cell epitope. Of the 12 highly versatile epitope candidates obtained above, 8 epitope candidates were subjected to an assay using peptides.
(§2) Human peripheral blood monocyte cells carrying HLA types and showing high binding affinity with 8 peptide sequences in Example 8 were used. Specifically, human peripheral blood monocyte cells carrying the following 2 types of HLA types were purchased from Lonza K.K. (Tokyo, Japan) and used. The HLA types of the first type of human peripheral blood monocyte cells used were HLA-DPA1*01:03, 02:02, HLA-DPB1*04:01, 05:01, HLA-DQA1*01:02, 02:01, HLA-DQB1*03:03, 05:02, and HLA-DRB1*07:01, 15:02. The HLA types of the second type of human peripheral blood monocyte cells were HLA-DPA1*01:03, HLA-DPB1*04:01, 04:02, HLA-DOA1*01:03, 05:05, HLA-DOB1*03:01, 06:03, and HLA-DRB1*13:01,14:06.
(§3) Cells were cultured in the following manner. […]
(§4) ELISPOT assays for interferon-γ and interleukin-4 were conducted. […] The number of spots of the color-developed plate was measured by a contract analysis service of M&S TechnoSystems, Inc. (Osaka, Japan).

[2] = tested on: human peripheral blood monocyte cells, second type (HLA-DRB1*13:01, 14:06); experiment: ELISPOT assay for interleukin-4, cell 2; assay type: cell-based; details: 4×10^5 cells per well, peptide 10 μg/ml, 48 hours, after 13 days culture with peptide 1 μg/ml and IL-2
Experimental: as §1, §2, §3, §4

T cells = details: peptide sequence including the TREM sequence (from TCRβ repertoire, Table 12 no) activates T cells to induce interferon-γ; cited from earlier work

| Substance | ELISPOT IL-4 cell 1 (number of spots) [1] | ELISPOT IL-4 cell 2 (number of spots) [2] | IFN-g release (T cells) |
| --- | --- | --- | --- |
| 7 (QDEKGVTQNGRLITA; listed as Homo sapiens) [compound 7] | 6 | 12 | – |
| 15 (LITMDWTWRFLFVVA; listed as Homo sapiens) [compound 15] | – | – | Positive |
